Source: ChEMBL document CHEMBL1909046, “DrugMatrix in vitro pharmacology data”
pIC50, pKi: −log10 of the molar value.

What was measured:
[1] = molecular target: Beta-3 adrenergic receptor (Homo sapiens, UniProt P13945); test: DRUGMATRIX: Adrenergic beta3 radioligand binding (ligand: [125I] Cyanopindolol); assay type: cell membranes, HEK293, Membrane; settings: Not Active = under 50% inhibition at 10 µM
[2] = DRUGMATRIX: Calcium Channel Type L, Dihydropyridine radioligand binding (ligand: [3H] Nitrendipine); assay type: cell membranes, Rattus norvegicus, Wistar, Cerebral cortex, Membrane; settings: Not Active = under 50% inhibition at 10 µM
D(3) dopamine receptor = D(3) dopamine receptor (Homo sapiens, UniProt P35462); test: DRUGMATRIX: Dopamine D3 radioligand binding (ligand: [3H] Spiperone); assay type: cell membranes, CHO, Membrane
Endothelin-1 receptor = molecular target: T1, Endothelin-1 receptor (Homo sapiens, UniProt P25101); assay type: cell membranes, Membrane; settings: cho-k1; further: in other assays of this panel Not Active means under 50% inhibition at 10 µM
T1 sequence (P25101 whole entry): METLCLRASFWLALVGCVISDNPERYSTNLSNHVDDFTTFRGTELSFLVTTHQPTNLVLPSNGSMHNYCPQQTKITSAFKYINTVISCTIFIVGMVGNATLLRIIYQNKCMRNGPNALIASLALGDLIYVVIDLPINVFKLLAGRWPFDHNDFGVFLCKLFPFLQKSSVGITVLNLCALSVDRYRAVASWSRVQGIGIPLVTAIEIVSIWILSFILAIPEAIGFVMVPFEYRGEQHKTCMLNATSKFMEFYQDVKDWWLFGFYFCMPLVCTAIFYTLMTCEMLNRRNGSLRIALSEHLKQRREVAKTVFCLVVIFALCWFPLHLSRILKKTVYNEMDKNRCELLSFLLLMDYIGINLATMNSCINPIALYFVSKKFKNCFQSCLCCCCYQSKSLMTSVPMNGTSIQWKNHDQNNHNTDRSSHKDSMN

[3] = molecular target: T2, Muscarinic acetylcholine receptor M4 (Homo sapiens, UniProt P08173); assay type: cell membranes, CHO-K1, Membrane; further: in other assays of this panel Not Active means under 50% inhibition at 10 µM
T2 sequence (P08173 whole entry): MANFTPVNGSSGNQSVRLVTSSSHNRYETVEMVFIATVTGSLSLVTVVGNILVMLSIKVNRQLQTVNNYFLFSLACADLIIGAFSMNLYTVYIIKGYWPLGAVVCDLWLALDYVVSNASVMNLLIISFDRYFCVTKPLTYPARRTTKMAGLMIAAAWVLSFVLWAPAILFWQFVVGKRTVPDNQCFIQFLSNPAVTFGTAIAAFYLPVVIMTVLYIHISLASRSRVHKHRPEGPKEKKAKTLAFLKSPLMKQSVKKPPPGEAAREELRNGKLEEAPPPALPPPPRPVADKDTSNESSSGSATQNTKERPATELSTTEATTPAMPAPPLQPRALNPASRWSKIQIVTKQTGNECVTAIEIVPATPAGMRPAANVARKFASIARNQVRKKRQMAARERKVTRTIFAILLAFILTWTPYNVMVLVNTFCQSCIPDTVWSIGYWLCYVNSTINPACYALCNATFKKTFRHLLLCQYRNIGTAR

Chain of Beta-3 adrenergic receptor (P13945 whole entry): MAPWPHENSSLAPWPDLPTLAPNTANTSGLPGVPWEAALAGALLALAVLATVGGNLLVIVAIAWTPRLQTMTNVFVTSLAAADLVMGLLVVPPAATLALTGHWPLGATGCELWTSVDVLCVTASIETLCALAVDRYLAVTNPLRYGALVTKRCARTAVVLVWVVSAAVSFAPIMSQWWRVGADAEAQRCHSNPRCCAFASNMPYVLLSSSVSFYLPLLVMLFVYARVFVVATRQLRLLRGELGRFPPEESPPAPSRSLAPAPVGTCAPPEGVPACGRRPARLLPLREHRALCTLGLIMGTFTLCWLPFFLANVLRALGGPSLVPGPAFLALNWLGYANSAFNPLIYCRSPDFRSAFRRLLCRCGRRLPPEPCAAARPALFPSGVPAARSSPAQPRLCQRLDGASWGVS
Chain of D(3) dopamine receptor (P35462 whole entry): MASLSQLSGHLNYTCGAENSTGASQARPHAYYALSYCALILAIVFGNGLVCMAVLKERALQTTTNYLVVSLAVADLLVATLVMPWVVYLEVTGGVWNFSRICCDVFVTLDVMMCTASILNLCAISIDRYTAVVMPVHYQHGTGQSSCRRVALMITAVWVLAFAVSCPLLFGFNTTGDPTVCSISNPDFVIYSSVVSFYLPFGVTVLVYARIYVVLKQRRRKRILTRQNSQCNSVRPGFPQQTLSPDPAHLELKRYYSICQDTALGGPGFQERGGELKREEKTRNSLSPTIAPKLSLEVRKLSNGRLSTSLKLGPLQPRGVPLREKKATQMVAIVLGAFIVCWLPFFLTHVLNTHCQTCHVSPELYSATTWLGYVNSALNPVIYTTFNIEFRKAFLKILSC

Compound	IC50 ([1]; hek293)	IC50 [2]	Ki [2]	IC50 (D(3) dopamine receptor; cho)	IC50 (Endothelin-1 receptor)	IC50 ([3]; cho-k1)	Ki ([1]; hek293)	Ki (D(3) dopamine receptor; cho)	Ki (Endothelin-1 receptor)	Ki ([3]; cho-k1)	pIC50 (D(3) dopamine receptor; read-out: IC50)	pKi (D(3) dopamine receptor; read-out: Ki)	pIC50 ([3]; read-out: IC50)	pKi ([3]; read-out: Ki)	pIC50 ([1]; read-out: IC50)	pKi ([1]; read-out: Ki)
COc1ccc2c(c1OC)C(=O)O[C@@H]2[C@H]1c2c(cc3c(c2OC)OCO3)CCN1C [NOSCAPINE]	Not Active	Not Active	Not Active	Not Active	Not Active	Not Active										
COLISTIN	Not Active	Not Active	Not Active	Not Active	Not Active	Not Active	Not Active	Not Active	Not Active	Not Active						
CCN(C(C)=O)c1cccc(-c2ccnc3c(C#N)cnn23)c1 [ZALEPLON]	Not Active	Not Active	Not Active	Not Active	Not Active	Not Active										
CN1C(=O)CN=C(c2ccccc2)c2cc([N+](=O)[O-])ccc21 [NIMETAZEPAM]	Not Active	Not Active	Not Active	Not Active	Not Active	Not Active										
C[C@@H]1C/C=C/C=C/C=C/C=C/[C@H](O[C@@H]2O[C@H](C)[C@@H](O)[C@H](N)[C@@H]2O)C[C@@H]2O[C@](O)(C[C@@H](O)C[C@H]3O[C@@H]3/C=C/C(=O)O1)C[C@H](O)[C@H]2C(=O)O [NATAMYCIN]	Not Active	Not Active	Not Active	Not Active	Not Active	Not Active										
ClC(Cl)(Cl)Cl [CARBON TETRACHLORIDE]	Not Active	Not Active	Not Active	Not Active	Not Active	Not Active										
NC12CC3CC(CC(C3)C1)C2 [AMANTADINE]	Not Active	Not Active	Not Active	Not Active	Not Active	Not Active										
CC(C)c1c(C(=O)Nc2ccccc2)c(-c2ccccc2)c(-c2ccc(F)cc2)n1CC[C@@H](O)C[C@@H](O)CC(=O)O [ATORVASTATIN]	Not Active	Not Active	Not Active	Not Active	Not Active	Not Active										
CN(C)CCC=C1c2ccccc2CCc2ccccc21 [AMITRIPTYLINE]	Not Active	Not Active	Not Active		Not Active						6.74	7.21	8.28	9.13		
C[C@]12CC[C@H]3[C@@H](CCC4=CC(=O)CC[C@@H]43)[C@@H]1CC[C@@H]2O [NANDROLONE]	Not Active	Not Active	Not Active	Not Active	Not Active	Not Active										
CCOc1nc2cccc(C(=O)O)c2n1Cc1ccc(-c2ccccc2-c2nnn[nH]2)cc1		Not Active	Not Active	Not Active	Not Active	Not Active									5.37	5.49
COc1cccc2c1C(=O)c1c(O)c3c(c(O)c1C2=O)C[C@@](O)(C(C)=O)C[C@@H]3O[C@H]1C[C@H](N)[C@H](O)[C@H](C)O1 [DAUNORUBICIN]	Not Active	Not Active	Not Active	Not Active	Not Active	Not Active										
CC(O)(P(=O)(O)O)P(=O)(O)O [ETIDRONIC ACID]	Not Active	Not Active	Not Active	Not Active	Not Active	Not Active										
CC(=O)Oc1ccccc1C(=O)O [ASPIRIN]	Not Active	Not Active	Not Active	Not Active	Not Active	Not Active										
O=c1[nH]c(=O)n([C@H]2C[C@H](O)[C@@H](CO)O2)cc1F [FLOXURIDINE]	Not Active	Not Active	Not Active	Not Active	Not Active	Not Active										
O=C(O)CC(O)(CC(=O)O)C(=O)O [CITRIC ACID]	Not Active	Not Active	Not Active	Not Active	Not Active	Not Active										
CCCCC1=NC2(CCCC2)C(=O)N1Cc1ccc(-c2ccccc2-c2nnn[nH]2)cc1 [IRBESARTAN]	Not Active	Not Active	Not Active	Not Active	Not Active	Not Active										
